Test results: patent US8084470B2, “Substituted nicotinamide compounds and uses thereof” (Gruenenthal GmbH, priority 2007, dated 2011)

What was measured:
[1] = test system: male rats (Sprague-Dawley); test: Formalin test, rat (second phase); assay type: in vivo; conditions: pain rate vs vehicle control, late phase
Protocol: The investigations to determine the antinociceptive activity of the compounds were carried out in the formalin test on male rats (Sprague-Dawley, 150-170 g).
In the formalin test, a distinction is made between the first (early) phase (0-15 min after formalin injection) and the second (late) phase (15-60 min after formalin injection) (D. Dubuisson, S. G. Dennis, Pain 4, 161-174 (1977)). The early phase, as a direct reaction to the formalin injection, represents a model for acute pain, while the late phase is regarded as a model for persistent (chronic) pain (T. J. Coderre, J. Katz, A. L. Vaccarino, R. Meizack, Pain, Vol. 52, p. 259, 1993).
The compounds according to the invention were investigated in the second phase of the formalin test in order to obtain information about the activity of substances in the case of chronic/inflammatory pain.
A nociceptive reaction was induced in freely mobile test animals by means of a single subcutaneous formalin injection (50 μl, 5% strength) into the dorsal side of the right rear paw, the reaction manifesting itself in the following behaviour parameters: lifting and holding of the affected paw (score 1), shaking or twitching (score 2), licking and biting (score 3). The differing behaviors induced by the formalin injection were detected continuously by observation of the animals in the late phase of the formalin test and were weighted differently in an evaluation. Normal behavior, in which the animal puts its weight on all four paws equally, was recorded as score 0. The time of administration before the formalin injection was chosen in dependence on the mode of administration of the compounds according to the invention (intraperitoneal: 15 min, intravenous: 5 min). After injection of substances that have antinociceptive activity in the formalin test, the described behaviours (score 1-3) of the animals are reduced or even eliminated. […] The nociceptive behaviour was calculated as the so-called pain rate (PR). […] Based on the PR calculations, the activity of the substance was determined as the change compared with the control in percent.

[2] = biological target: T1, hKCNQ2/3 (Homo sapiens, UniProt O43525+O43526); test: Fluorescence assay using a voltage sensitive dye; assay type: cell-based; design: expressed in transfected cells; host or cells: CHO-K1
Protocol: Biological Data Fluorescence Assay Using a Voltage Sensitive Dye
Human CHO-K1 cells expressing KCNQ2/3 channels are cultivated adherently at 37° C., 5% CO2 and 95% humidity in cell culture bottles (e.g. 80 cm^2 TC flasks, Nunc) with DMEM-high glucose (Sigma Aldrich, D7777) including 10% FCS (PAN Biotech, e.g. 3302-P270521) or alternatively with MEM Alpha Medium (1×, liquid, Invitrogen, #22571), 10% fetal calf serum (FCS) (Invitrogen, #10270-106, heat-inactivated) and the necessary selection antibiotics.
Before being distributed for the measurements, the cells are washed with a 1×DPBS buffer without Ca^2+/Mg^2+ (e.g. Invitrogen, #14190-094) and detached from the bottom of the culture vessel by means of Accutase (PAA Laboratories, #L11-007) (incubation with Accutase for 15 min at 37° C.). The cell count then present is determined using a CASY™ cell counter (TCC model, Schärfe System) in order subsequently to apply, according to density optimization for the individual cell line, 20,000-30,000 cells/well/100 μl of the described nutrient medium to 96-well measuring plates of the Corning™ CellBIND™ type (Flat Clear Bottom Black Polystyrene Microplates, #3340). Incubation is then carried out for one hour at room temperature, without gassing or adjusting the humidity, followed by incubation for 24 hours at 37° C., 5% CO2 and 95% humidity.
The voltage-sensitive fluorescent dye from the Membrane Potential Assay Kit (Red™ Bulk format part R8123 for FLIPR, MDS Analytical Technologies™) is prepared by dissolving the contents of a vessel Membrane Potential Assay Kit Red Component A in 200 ml of extracellular buffer (ES buffer, 120 mM NaCl, 1 mM KCl, 10 mM HEPES, 2 mM CaCl2, 2 mM MgCl2, 10 mM glucose; pH 7.4). After removal of the nutrient medium, the cells are washed with 200 μl of ES buffer, then covered with a layer of 100 μl of the dye solution prepared above and incubated for 45 min at room temperature with the exclusion of light.
The fluorescence measurements are carried out with a BMG Labtech FLUOstar™ or BMG Labtech NOVOstar™ or BMG Labtech POLARstar™ instrument (525 nm excitation, 560 nm emission, Bottom Read mode). After incubation of the dye, 50 μl of the test substances in the desired concentrations, or 50 μl of ES buffer for control purposes, are introduced into separate cavities of the measuring plate and incubated for 30 min at room temperature while being shielded from light. The fluorescence intensity of the dye is then measured for 5 min and the fluorescence value F1 of each well is thus determined at a given, constant time. 15 μL of a 100 mM KCl solution ([…]) are then added to each well. The change in fluorescence is subsequently measured until all the relevant measured values have been obtained (mainly 5-30 min). At a given time after KCl application, a fluorescence value F2 is determined, in this case at the time of the fluorescence peak.
For calculation, the fluorescence intensity F2 is compared with the fluorescence intensity F1, and the agonistic activity of the target compound on the potassium channel is determined therefrom. F2 and F1 are calculated as follows:
[formula] In order to determine whether a substance has an agonistic activity,
[formula] for example, can be compared with
[formula] of control cells.
[formula] is determined by adding to the reaction batch only the buffer solution instead of the substance to be tested, determining the value F1K of the fluorescence intensity, adding the potassium ions as described above and measuring a value F2K of the fluorescence intensity. Then F2K and F1K are calculated as follows:
[formula] A substance has an agonistic activity on the potassium channel when
[formula] is greater than
[formula] Independently of the comparison of
[formula] it is also possible to conclude that a target compound has agonistic activity if an increase in
[formula] is to be observed as the dosage of the target compound increases. […]

[3] = biological target: T1, hKCNQ2/3; test: Voltage clamp (patch-clamp) measurements; assay type: cell-based; design: expressed in transfected cells; host or cells: CHO-K1 (stably transfected); conditions: for MAN rel eff @ 10 μm [RG = 1]: test substance 10 μM at −40 mV, increase in current standardized to retigabine (10 μM) effect = 1
Protocol: Voltage Clamp Measurements
In order to confirm a KCNQ2/3-agonistic action of the substances electrophysiologically, patch-clamp measurements (Hamill et al., 1981) were carried out in voltage clamp mode on a stably transfected hKCNQ2/3 CHO-K1 cell line. After formation of the gigaseal, the cells were first clamped at a holding potential of −60 mV. Thereafter, depolarizing voltage jumps were applied up to a potential of +20 mV (increment: 20 mV, duration: 1 second) in order to confirm the functional expression of KCNQ2/3-typical currents. The testing of the substances was carried out at a potential of −40 mV. The increase in current induced by retigabine (10 μM) at −40 mV was first recorded as a positive control on each cell. After complete washing out of the retigabine effect (duration: 80 s), the test substance (10 μM) was applied. The increase in current induced by the test substance was standardized to the retigabine effect and indicated as the relative efficacy (see below). Hamill O P, Marty A, Neher E, Sakmann B, Sigworth F J.: Improved patch-clamp techniques for high-resolution current recording from cells and cell-free membrane patches. Pflugers Arch. 1981 August; 391(2):85-100. Voltage-clamp measurements were carried out only for selected compounds: […]

[4] = test system: rat; test: Chung test on the rat; assay type: in vivo; conditions: iv, i.v. administration
Source text: In addition, Example 89 was investigated in the Chung test on the rat.

| Structure (SMILES) | EC50 [2] [nM] | MAN rel eff @ 10 μm [RG = 1] [3] | further results |
| --- | --- | --- | --- |
| O=C(NCC1CCCCC1)c1cccnc1SCCS(=O)(=O)c1ccccc1 [Example 56, N-(cyclohexylmethyl)-2-(2-(phenylsulfonyl)ethylthio)nicotinamide] | 1010 | 1.06 | Change in % ([1]; 2.15 mg/kg i.v.): −34.1% |
| O=C(NCCC1CCCCC1)c1cccnc1SCCS(=O)(=O)c1ccccc1 [Example 58, N-(2-cyclohexylethyl)-2-(2-(phenylsulfonyl)ethylthio)nicotinamide] | 1180 | 0.47 |  |
| Cc1ccc(CNC(=O)c2cccnc2SCCS(=O)(=O)c2ccccc2)o1 [Example 61, N-(5-methylfuran-2-ylmethyl)-2-(2-(phenylsulfonyl)ethylthio)nicotinamide] | 3470 | 0.81 |  |
| Cc1cccc(CNC(=O)c2cccnc2SCCS(=O)(=O)c2ccccc2)c1 [Example 65, 2-(2-(phenylsulfonyl)ethylthio)-N-(3-tolylmethyl)nicotinamide] | 580 | 0.4 |  |
| O=C(NCc1cccs1)c1cccnc1SCCSc1cccc(C(F)(F)F)c1 [Example 73, N-(thiophen-2-ylmethyl)-2-(2-(3-(trifluoromethyl)phenylthio)ethylthio)-nicotinamide] |  |  | Change in % ([1]; 1 mg/kg i.v.): −29.9% |
| O=C(NCc1cccs1)c1cccnc1SCCS(=O)(=O)c1ccccc1 [Example 89, 2-(2-(phenylsulfonyl)ethylthio)-N-(thiophen-2-ylmethyl)nicotinamide] | 2280 |  | Change in % ([1]; 6.81 mg/kg i.v.): −74.2%; ED50 [4]: 6.3 mg/kg; EC50 ([3]; patch-clamp, hKCNQ2/3 CHO-K1 cell line, read-out: MAN EC50): 1010 nM |
| O=C(NCc1ccccn1)c1cccnc1SCCS(=O)(=O)c1cccc(C(F)(F)F)c1 [Example 90, N-(pyridin-2-ylmethyl)-2-(2-(3-(trifluoromethyl)phenylsulfonyl)ethylthio)-nicotinamide] | 2490 | 0.79 |  |
